Biological target: T1, substance P (NK-1) receptor (Rattus norvegicus, UniProt P14600)
T1 construct: from tissue; host or cells: living Fischer F344 rats; read-out in trachea and main stem bronchi
Assay: Capsaicin-induced Evans blue extravasation in airways of rats inoculated endotracheally with Ad5CMVLacZ
Type: in vivo
Settings: Fischer F344 rats inoculated with Ad5CMVLacZ, 5 days after inoculation; pretreatment 4 mg/kg i.v., n=5; p>0.05 vs vector without pretreatment
Procedure: Pathogen-free Fischer F344 male rats (220-287 grams in weight, 12-14 weeks of age), under sodium pentobarotal anesthesia, received a localized endotracheal inoculation with 100 μL cf phosphate-buffered saline (PBS) containing 3×10^12 particles/mL of Ad5CMVLacZ, an adenovirus type 5 vector defective in the E1 and E3 regions of the viral genome and containing the LacZ transgene under the control of the CMV (cytomegalo virus) immediate early promoter. A control group of rats was inoculated with sterile PBS.
Five minutes after pretreatment, Evans blue dye (30 mg/kg i.v.) was injected into all the rats to measure the increase in vascular permeability associated with the neurogenic inflammation. Capsaicin (75 mg/kg i.v. over 2 min) was injected immediately after Evans blue to stimulate the sensory nerves in the airway mucosa. Five minutes after capsaicin, the rats were perfused through the heart with 100 mL of PBS. The trachea and main stem bronchi were removed and incubated in formamide (18 hours at 50° C.) to extract the extravasated tracer. The magnitude of the Evans blue extravasation was determined by spectrophotometric measurements of the optical density of formamide extracts.

T1 sequence (P14600 whole entry): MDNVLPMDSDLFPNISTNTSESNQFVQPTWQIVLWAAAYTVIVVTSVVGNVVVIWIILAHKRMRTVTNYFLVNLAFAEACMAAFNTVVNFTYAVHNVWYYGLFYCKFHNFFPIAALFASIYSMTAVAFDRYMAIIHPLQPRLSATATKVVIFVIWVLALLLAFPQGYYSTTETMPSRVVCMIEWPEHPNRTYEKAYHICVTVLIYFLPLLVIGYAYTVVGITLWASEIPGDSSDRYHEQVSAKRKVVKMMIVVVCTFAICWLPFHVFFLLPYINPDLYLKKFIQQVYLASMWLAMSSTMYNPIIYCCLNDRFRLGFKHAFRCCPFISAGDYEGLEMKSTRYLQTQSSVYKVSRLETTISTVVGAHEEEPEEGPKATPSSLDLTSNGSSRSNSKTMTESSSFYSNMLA

extravasation of Evans blue produced by capsaicin (trachea and main stem bronchi), mean ±SEM: 88.3 ± 5.8 ng/mg
SMILES: COc1ccccc1CN[C@@H]1CCCN[C@@H]1c1ccccc1 [compound B, (2R,3R)-2-phenyl-3-[(2-methoxyphenyl)methylamino]piperidine]

Reference: patent US6562335B1, “NK-1 receptor antagonists for prevention of neurogenic inflammation in gene therapy” (Pfizer, Inc., priority 1995, dated 2003)
